According to US20230405143A1, “TYROSINE-BASED ANTIBODY CONJUGATES” (Synaffix B.V., priority 2020, published 2023):

Assay: stability of linker-payload under acidic sample work-up and analysis (MS / RP-HPLC)
Format: physicochemical
Conditions: note to FIG. 26
Protocol: Note: *BCN-HS-PEG2-va-PABC-PBD is not stable under the acidic conditions used in sample work-up and analysis. Therefore, some peak broadening is observed, so conversion was determined by the amount of starting material left.
Prior to RP-HPLC analysis, IgG (10 μL, 1 mg/mL in PBS pH 7.4) was added to 12.5 mM DTT, 100 mM TrisHCl pH 8.0 (40 μL) and incubated for 15 minutes at 37° C. The reaction was quenched by adding 49% acetonitrile, 49% water, 2% formic acid (50 μL). RP-HPLC analysis was performed on an Agilent 1100 series (Hewlett Packard). The sample (10 μL) was injected with 0.5 mL/min onto Bioresolve RP mAb 2.1*150 mm 2.7 μm (Waters) with a column temperature of 70° C. A linear gradient was applied in 16.8 minutes from 30 to 54% acetonitrile in 0.1% TFA and water.
Prior to mass spectral analysis, IgG was treated with IdeS, which allows analysis of the Fc/2 fragment. For analysis of the Fc/2 fragment, a solution of 20 μg (modified) IgG was incubated for 1 hour at 37° C. with IdeS/Fabricator™ (1.25 U/μL) in PBS pH 6.6 in a total volume of 10 μL. Samples were diluted to 80 μL followed by analysis electrospray ionization time-of-flight (ESI-TOF) on a JEOL AccuTOF. Deconvoluted spectra were obtained using Magtran software.

With BCN-HS-PEG2-va-PABC-PBD the “stability under the acidic conditions used in sample work-up and analysis” value was “not stable”.
